The values that follow come from patent US12552823B2, “Glucosamine derivatives and pharmaceutical uses thereof” (RISEN (SUZHOU) PHARMA TECH CO., LTD., priority 2017, dated 2026).

Data set [1] is described as follows: Pharmacokinetic studies in Sprague-Dawley (SD) rats: plasma GlcNBu after oral gavage of test compound. The format is in vivo. Details: key to AUC0-t / AUC0-∞ / t1/2z / Tmax / Vz/F / CLz/F / Cmax: (—): not detected. The conditions noted are these: 0.93 mmol/kg; for AUC0-t / AUC0-∞ / CLz/F / Cmax / Tmax / Vz/F / t1/2z: Table 5, plasma GlcNBu after oral gavage of indicated compound. Here is the method: A test compound is dissolved in water at a concentration determined by the desired dose and dosing volume for the specific animal to which the compound is to be administered. A calculated volume of dosing solution is administered to the animal (PO, SQ, IP, or IV). A blood sample is collected following administration of the test compound at specific time points (such as 0 minutes (min), 5 min, 10 min, 15 min, 30 min, 1 hour (h), 1.5 h, 2 h, 3 h, 4, 6 h, etc.). The blood sample is converted to a plasma sample using standard techniques. The plasma samples are analyzed to determine the concentration of the test compound and, in some cases, GlcNBu.
According to the above general procedure, SD rats were grouped randomly into groups of six (n=6). The test compound, GlcNBu or a compound provided herein, was administered to the animals by oral gavage at a dose of 0.93 mmol/kg. For illustration purposes, GlcNBu was given at an oral dose of 232 mg/kg (0.93 mmol/kg), and compound 16 was administered at an equal molar dose (0.93 mmol/kg, i.e., 362 mg/kg). At pre-set time points, blood was taken through orbital venous plexus extraction, and the samples were analyzed using LC/MS-MS to determine the GlcNBu concentration in the plasma.
In the figure, Curves labeled with -●- and -▴-represent plasma GlcNBu concentration following oral administration of GlcNBu (232 mg/kg, or 0.93 mmol/kg) and compound 16 ([…], or 0.93 mmol/kg), respectively. […] FIG. 2A and FIG. 2B show examples of other compounds of the invention, presented in plasma GlcNBu concentration versus time curves; a summary of pharmacokinetic parameters for these compounds is given in Table 4 and Table 5.

Data set [2] concerns destructive arthritis rat model. The conditions noted are these: cited from earlier work.
The test system of a further data set is OVX rat. The settings on record: feeding in the OVX rat; cited from earlier work.
For data set [3] the following is noted: humans, polyvalent or monovalent form, compared with glucosamine; cited from earlier work.
Data set [4] concerns Medial Meniscus Transection (MMT) Model in Rats. Put plainly: Medial meniscus transection (MMT) model in rats: weight bearing and histopathology. Type of data set: in vivo, rat. The text has this:
In the rat MMT model, the unilateral knee (right knee) was cleaned and prepped for surgery. An incision was made over the medial aspect of the femoro-tibial joint. The medial collateral ligament was exposed via blunt dissection and transected to reflect the meniscus toward the femur. A full thickness cut was made through the meniscus at its narrowest point. The joint space was returned to normal, and the skin was closed and the animal allowed to recover. For the present study, at second day post MMT induction animals, G1 and G2 animals were treatment with vehicle and test compound 16 respectively. Animals were dosed 4 times every day, and were dosed by gavage for 4 weeks.

The subject of data set [5] is Monosodium Iodoacetate-Induced Osteoarthritis (MIA) Model in Rat Knee. As to the kind of experiment: Monosodium iodoacetate-induced osteoarthritis (MIA) model in rat knee: weight bearing and histology. The format is in vivo. Here is the method:
Osteoarthritis was induced by intra-articular (i.a.) injection of MIA solution in the rat knee joint as follows: Briefly, rats were anesthetized with isoflurane and given a single i.a. administration of 2 mg of MIA dissolved in saline through the intrapatellar ligament of the right knee. MIA was administered in a volume of 50 μL. Basal readings were established using a group of control rats injected with 10% ethanol in water. Rats were randomized by initial body weight to groups of 6 or 7. After MIA injection, the MIA groups began treatment with either vehicle, or a test compound at a preset dose regime for a period of 28 days. Clinical observations were recorded, including body weight, joint swelling, and weight bearing, on pre-induction day (day 0), day 3, 5, 7, 14, 21 and/or 28. At the end of the study, the animals were euthanized by CO2 and sacrificed.
Joint samples including the tibia and femur were sectioned in the coronal plane and stained using both H&E and Safranin-O. Knee joints were examined and scored for cartilage degeneration, the presence of osteophytes, the amount and extent of calcified cartilage and subchondral bone damage, and the amount of synovial membrane inflammation using the Osteoarthritis Research Society International (OARSI) scoring system put forth in 2010 (Kraus, V. B. et al., Osteoarthritis Cartilage, 2010, Suppl 3:535-52).
Studies of compound 16 in the MIA model were conducted as described above.

Each structure is given as a SMILES string.

For the compound `CCCC(=O)N[C@H]1C(OCc2ccccc2)O[C@H](CO)[C@@H](O)[C@@H]1OCc1ccccc1` (stereo partly drawn) [Compound 76, 2-N-butyryl-1,3-di-O-benzyl-D-glucosamine], in data set [1], the AUC0-t entry is “(—)”, the “AUC0-∞” value is recorded as “(—)”, the CLz/F entry is on record as “(—)” and the Cmax entry is given as “(—)”. In addition, in data set [1], the Tmax entry is given as “(—)”, the Vz/F entry is “(—)” and the t1/2z entry is reported as “(—)”.
For the compound `CCCC(=O)N[C@H]1C(OCc2ccccc2)O[C@H](CO)[C@@H](O)[C@@H]1O` (stereo partly drawn) [Compound 75, 1-O-benzyl-2-N-butyryl-D-glucosamine], in data set [1], the AUC0-t entry is on record as “(—)”, the “AUC0-∞” value is on record as “(—)”, the CLz/F result is “(—)” and the Cmax result is “(—)”. Moreover, in data set [1], the Tmax result is “(—)”, the Vz/F entry was “(—)” and the t1/2z result is “(—)”.
Consider `CCCC(=O)N[C@H]1C(O)O[C@H](COC(=O)CCC(=O)O)[C@@H](OC(=O)CCC(=O)O)[C@@H]1O` (stereo partly drawn) [Compound 79, 2-N-butyryl-4,6-di-O-(4-hydroxy-4-oxo-butyryl)-D-glucosamine], for which, in data set [1], the AUC0-t entry was “(—)”, the “AUC0-∞” value was “(—)”, the CLz/F entry is given as “(—)” and the Cmax result is on record as “(—)”. In data set [1], the Tmax entry was “(—)”, the Vz/F entry is reported as “(—)” and the t1/2z result is “(—)”.
In the case of `CCCC(=O)N[C@H]1C(O)O[C@H](COC(=O)NCCCC(=O)O)[C@@H](O)[C@@H]1O` (stereo partly drawn) [Compound 94, 2-N-butyryl-6-O-((3-carboxy-1-propyl)aminocarbonyl)-D-glucosamine], in data set [1], the AUC0-t result is listed as “(—)”, the “AUC0-∞” value is recorded as “(—)”, the CLz/F result was “(—)” and the Cmax result is “(—)”. Besides, in data set [1], the Tmax result is “(—)”, the Vz/F entry was “(—)” and the t1/2z result is listed as “(—)”.
For the compound `CCCC(=O)N[C@H]1C(O)O[C@H](CO)[C@@H](O)[C@@H]1O` (stereo partly shown) [GlcNBu, N-butyryl glucosamine], the subchondral bone structure entry in data set [2] was “preserved strikingly the subchondral bone structure”. The “bone mineral and biomechanical properties” value in the data set on OVX rat is “preserves bone mineral and some biomechanical properties”.
As to `CC(=O)N[C@H]1C(O)O[C@H](CO)[C@@H](O)[C@@H]1O` (stereo partly shown) [N-acetylglucosamine], the half-life entry in data set [3] is listed as “longer half-life than glucosamine”.
Regarding `CCCC(=O)N[C@H]1C(O)O[C@H](COC(=O)CCC)[C@@H](OC(=O)CCC)[C@@H]1O` (stereo partly drawn) [Compound 16, 2-N-butyryl-4,6-O-tributyryl-D-glucosamine], the “degeneration changes of chondrocyte clustering” value in data set [4] (G2 as compared with G1) was “significantly lower”. The “weight bearing on the right paw” value in data set [4] (G2 as compared with G1 on Day 3 and Days 14-28) is given as “significantly increased”. Besides, the histology parameters result in data set [4] (G2 vs G1, all parameters) was “values in all parameters lower”. In data set [5] (MIA-induced OA rat model), the articular cartilage degeneration result was “slowed the articular cartilage degeneration”. In data set [5] (day 5, all compound-treated groups (234 and 468 mg/kg) vs vehicle), the “weight bearing on the back-right leg” value is given as “significant increases”. Also, in data set [5] (day 14, high dose (G3, 468 mg/kg) vs vehicle), the weight bearing entry is “significant increases”. Moreover, the “osteophytes (histology)” value in data set [5] (high dose group (468 mg/kg) compared with vehicle group) is “significantly decreased”. In addition, the “other histological parameters (mean values)” value in data set [5] (high dose treated group (468 mg/kg) vs vehicle) is “clear trend of lowering all other mean values”. In addition, the plasma drug exposure result in data set [1] (versus GlcNBu at mole-equivalent oral dose) is on record as “improved plasma drug exposure significantly”.
